Experimental data published in patent publication US9061079B2, “Peptides that home to atherosclerotic plaques and methods of use” (Sanford-Burnham Medical Research Institute, priority 2011, dated 2015).
Ends that are not written are not given here. FAM = fluorescein label

Tests used:
[1] = tested on: porcine iliofemoral arteries; conditions: arteries infected with adenoviral vector encoding tk, then exposure to ganciclovir; cited from earlier work
[2] = tested on: cells released from plaques; assay: FACS analysis of cells released from plaques after in vivo circulation of FAM-peptides; parameters: species or system mice (ApoE-null); conditions: for % of FAM positive cells among cells released from plaques: after 4 hours in vivo circulation
Text: (§1) Atherosclerotic plaques in male and female mice homozygous for the ApoetmlUnc mutation (ApoE-null mice) (The Jackson Laboratory) were induced by maintaining the mice on a high fat diet (Reddick et al., Arterioscler. Thromb. 14:141-147 (1994); Maeda et al., Atherosclerosis 195:75-82 (2007)) for 6 to 8 months. Healthy aortas were obtained from age-matched C7BL/6 wild-type mice fed on a normal diet. The mice were housed and all procedures performed with the approval and according to standards of the University of California, Santa Barbara and University of California, Davis Institutional Animal Care and Use Committees. To test peptide homing, the mice were injected intravenously via retro-orbital under isoflurane inhalation (isoflurane 2% to 3% vol/vol+2 L/min O2) anesthesia and, when applicable, subsequently perfused with high glucose DMEM through the left ventricle to remove unbound reagent. Tissues were excised and left unfixed or fixed with 4% paraformaldehyde.
Cells from plaques and other tissues were released into suspension by 2-hour incubation at 37° C. in a tissue digestion cocktail containing 450 U/mL collagenase type 1 (Worthington Biochemical), 1 mg/mL soybean trypsin inhibitor (Worthington Biochemical), 4.7 U/mL elastase (Worthington Biochemical), 1 mg/mL DNase 1 (Sigma Aldrich) and 0.5% fetal calf serum (FCS). CD11b PE-Cy5 (rat monoclonal, eBioscience) was used to identify monocytes/macrophages. Positive cells were quantified on GUAVA FACS instrument (Millipore) and data were analyzed using FCS Express Version 3 (De Novo Software).
To detect peptide homing to plaques, the distribution of intravenously injected peptides that had been labeled with fluorescein ([…]; FAM) were analyzed. […] Staining with an anti-fluorescein antibody confirmed the presence of LyP-1 in the plaques. For comparison, mice were also injected with a peptide previously shown to home to plaques, CREKA (SEQ ID NO:4) (Peters et al., Proc. Natl. Acad. Sci. USA 106:9815-9819 (2009)). […]

[3] = tested on: primary cells released from plaques; assay: Peptide binding ex vivo (FACS); format: cell-based, mice (ApoE-null); conditions: 1 nmol FAM-peptide, 10 min on ice
Procedure: (§2) Dead cells were first removed from the cell suspension released from aorta, isolated macrophages from 4T1 tumors and spleen and bone marrow cells using Dead cell removal kit (Miltenyi Biotec). Cells were incubated with 1 nmol of either FAM-LyP-1 or FAM-ARAL (SEQ ID NO:5) for 10 min on ice. After washing, the cell pellets were resuspended in buffer containing 1 μg propidium iodide. Cells positive for FAM and propidium iodide staining were quantified on GUAVA FACS instrument (Millipore) and data were analyzed using FCS Express Version 3 (De Novo Software). The % of viable cells after dead cell removal in each case was >75%.

dermatitis = assay: Treatment of dermatitis in ApoE-null mice on high-fat diet; format: in vivo
Procedure: The effect of LyP-1 treatment on dermatitis was tested. ApoE-null mice that were on a high-fat diet and suffered from severe dermatitis refractory to topical antibiotic treatment were treated with intraperitoneal injections of 200 μg of LyP-1 or control peptide ([…]; SEQ ID NO:6) three times a week for one month (while continuing their diet). The condition of the skin before and after the treatment was recorded in photographs. […] Thus, LyP-1 treatment improves dermatitis.
The effect of LyP-1 on skin dermatitis correlates with reduced in p32 expression and macrophage accumulation. Mice treated as above in FIG. 19 were intravenously injected with 100 μL of 1 mM fluorescein-labeled LyP-1 and peptide was allowed to circulate for 2 hours. Sections of skin biopsies obtained before and after 4 weeks of LyP-1 treatment were analyzed.

plaque macrophages = assay: Effect of treatment on plaque macrophages (FACS of cells released from plaques); format: in vivo, mice (ApoE null); conditions: after 4 weeks of treatment, versus control-treated aortas
Procedure: (§3) The effect of LyP-1 treatment on plaque formation was tested. ApoE null mice fed a high-fat diet for 5 months were treated with intraperitoneal injections of 200 μg of LyP-1 or control peptide ([…]; SEQ ID NO:6) three times a week for one month (while continuing their diet).
The effect of LyP-1 treatment on plaque macrophages was tested.

4T1 tumors = assay: Treatment of 4T1 tumor mice with peptide, effect on tumor macrophages; format: in vivo, mice (BALB/c); conditions: 60 μg daily tail vein injections for 12 days, versus control peptide
Procedure: The effect of LyP-1 peptide treatment of mice with tumors was tested. To produce 4T1 breast cancer tumors, normal female BALB/c mice were orthotopically injected into the mammary fat pad with 1×10^6 4T1 cells suspended in 100 μL of PBS. The mice were treated with daily tail vein injections of 60 μg of LyP-1 or control peptide ([…]; SEQ ID NO:6) for 12 days. […] Cell suspensions were prepared from 4T1 tumors from mice treated with LyP-1 or the control peptide. The tumors were incubated for 1 hour at 37° C. in a tissue digestion cocktail containing 2 mg/mL Collagenase IV (Worthington Biochem Corp) and 1 mg/mL DNAse 1 (Sigma) in high glucose DMEM media (Gibco). The resulting cell suspension was passed through 70 μm nylon mesh cell strainer (BD), and the live cells were double stained for cell surface p32 (rabbit anti-mouse p32, Fogal et al., supra (2008)) and macrophages (rat anti-mouse CD11b, ebioscience) and analyzed by FACS.

bone marrow cells = assay: Peptide binding ex vivo (FACS); format: cell-based, mice (ApoE); conditions: 1 nmol FAM-peptide, 10 min on ice
Procedure: Bone marrow cells were isolated from the tibias and femurs of ApoE mice on high fat diet by flushing high glucose DMEM media (Gibco) using an 18 gauge needle and passed through a 70 μm nylon mesh cell strainer (BD).
as §2

atherosclerotic plaques [4] = assay: Effect of treatment on plaque formation; format: in vivo, mice (ApoE null); conditions: 200 μg intraperitoneally three times a week for one month, high-fat diet
Procedure: as §3

[5] = tested on: CD11b-positive macrophages from 4T1-tumors; assay: Peptide binding ex vivo (FACS); format: cell-based, mice (BALB/c); conditions: 1 nmol FAM-peptide, 10 min on ice
Procedure: (§4) To produce 4T1 tumors, normal female BALB/c mice were orthotopically injected into the mammary fat pad with 1×10^6 4T1 cells suspended in 100 μL of PBS. All animal experimentation received approval from the Animal Research Committee of University of California, Santa Barbara. Fully grown 4T1 tumors and control spleen were excised from the mice two weeks after inoculation, minced and incubated with tissue digestion cocktail containing 2 mg/mL Collagenase IV (Worthington Biochem Corp) and 1 mg/mL DNAse 1 (Sigma) solution in high glucose DMEM media (Gibco) at 37° C. for 1 hour. Cells were passed through 70 μm nylon mesh cell strainer (BD). CD11b-positive macrophages were isolated using the MACS CD11b-positive microbeads (Miltenyi Biotec).
as §2

[6] = tested on: monocytes/macrophages isolated from spleen; assay: Peptide binding ex vivo (FACS); format: cell-based, mice; conditions: 1 nmol FAM-peptide, 10 min on ice
Procedure: as §4, §2

atherosclerotic plaques [7] = assay: Homing of intravenously injected FAM-labeled peptides to plaques, fluorescence histology of aorta sections; format: in vivo, mice (ApoE-null); conditions: for accumulation in plaque tissue (fluorescence of aorta sections): atherosclerotic ApoE-null mice, 100 μg FAM-peptide intravenously, 1 hour circulation
Text: as §1
Fresh frozen OCT-embedded tissue was sectioned at 7 μm, fixed with ice cold acetone, blocked with 4% serum in PBS, and stained with antibodies. The following antibodies were used: anti-mouse p32 (rabbit polyclonal; (Fogal et al., supra (2008)), CD68 (rat monoclonal, eBioscience), CD11b (rat monoclonal, eBioscience), CD31 (rat monoclonal, eBioscience), podoplanin (hamster monoclonal, eBioscience), LYVE-1 (rat monoclonal, eBioscience), anti-FITC-HRP (goal polyclonal, ACRIS). Purified rat IgG2a K isotype control (BD Pharmingen), normal rabbit IgG (R&D) and normal goat IgG (R&D) were used as controls. The following secondary antibodies from Invitrogen were used for detection: goat anti-rat 488/546, goat anti-rabbit 488/546, donkey anti-goat 488/546, goat anti-hamster 546 and goat anti-rat 647. Primary antibodies were incubated for 1 to 4 hours at room temperature, or at 4° C. to detect cell surface expression. Stained tissue sections were mounted in Vectorshield DAPI-containing mounting media (Vector lab). […]
Tissue sections were examined under a FluoView™ 500 confocal laser-scanning microscope (Olympus) or BX60 fluorescence microscope with MiroFire camera (Olympus). Whole-tissue uptake of fluorescein-labeled peptides following in vivo circulation was imaged using a 530-nm viewing filter, Illumatool light source (Light Tools Research) and recorded with a Canon XTi DSLR camera.
To detect peptide homing to plaques, the distribution of intravenously injected peptides that had been labeled with fluorescein ([…]; FAM) were analyzed. […]
Atherosclerotic mice were injected with 100 μg of FAM-LyP-2 and the probe was allowed to circulate for 1 hour. Following 1 hour of circulation, the aorta was collected and the peptide was detected in tissue sections by fluorescence detection.

mitochondrial membranes = conditions: concentration of 10 μM; cited from earlier work
[8] = after 4 weeks of treatment, versus control-treated mice
[9] = 100 μL of 1 mM intravenously, 2 hours circulation

## Nc1nc(O)c2ncn(COC(CO)CO)c2n1 [ganciclovir]
[1]
  reduction of neointimal thickening following balloon injury: 50-87%

## ARALPSQRSR
[2]
  % of FAM positive cells among cells released from plaques: 7.5±4.1%

## CGNKRTRGC (disulfide (positions not given here); not fully specified (bridges); also: cyclic, kind not given here) [LyP-1]
[3]
  binding to primary cells released from plaques: significant binding
dermatitis; 200 μg intraperitoneally three times a week for one month
  skin condition (dermatitis): significant improvement of their skin condition
dermatitis; [8]
  cells positive for CD11b and p32 in skin: smaller numbers of cells positive for CD11b and p32
  skin thickness of healed dermatitis skin: reduced thickness
Plaque macrophages
  percentage of total macrophages (p32-positive and negative) among cells released from plaques: lower percentage of total macrophages
4T1 tumors
  macrophages positive for cell surface p32 in 4T1 tumors: reduced
  total number of macrophages (CD11b-positive cells) in 4T1 tumors: reduced
Bone marrow cells
  binding to bone marrow cells: little binding
Atherosclerotic plaques [4]
  plaque formation in excised ascending and descending aorta: reduced plaque formation
[5]
  binding to CD11b-positive macrophages from 4T1-tumors: significant binding
[6]
  binding to monocytes/macrophages isolated from spleen: little binding
Atherosclerotic plaques [7]; intravenous FAM-peptide
  accumulation in healthy aortas and non-aortic tissues of the atherosclerotic mice: no significant accumulation

## CREKA
[2]; 4 hours after intravenous injection
  CD11b-positive plaque cells positive for peptide uptake: taken up by a small number of CD11b-negative cells
[2]
  % of FAM positive cells among cells released from plaques: 18.1±4.6%

## D(KLAKLAK)2 (KLAKLAKKLAKLAK; D-amino acids)
Mitochondrial membranes
  mitochondrial swelling: marked mitochondrial swelling

## FAM-ARALPSQRSR: control peptide ARALPSQRSR labeled with FAM ({FAM}-ARALPSQRSR) [reference compound]
Atherosclerotic plaques [7]
  accumulation in plaque tissue (fluorescence of aorta sections): did not accumulate in the plaques

## FAM-CREKA: CREKA peptide labeled with fluorescein (FAM) ({FAM}-CREKA) [reference compound]
Atherosclerotic plaques [7]
  accumulation in plaque tissue (fluorescence of aorta sections): essentially confined to the surface of the plaques

## FAM-LyP-1: LyP-1 peptide labeled with fluorescein (FAM) ({FAM}-CGNKRTRGC; disulfide (positions not given here); not fully specified (bridges); also: cyclic, kind not given here)
dermatitis; [9]
  peptide homing to healed dermatitis skin from LyP-1-treated mice: attenuated LyP-1 homing
  peptide homing to inflamed skin from control-treated mice: robust LyP-1 homing
  peptide homing to normal skin: no LyP-1 homing
Atherosclerotic plaques [7]
  accumulation in plaque tissue (fluorescence of aorta sections): extensive accumulation of FAM-LyP-1 inside the plaque tissue
